Laboratory results taken from ChEMBL document CHEMBL1275314, “Synthesis and biological evaluation of some 1,3,4-oxadiazole derivatives” (Eur J Med Chem, 2010).
Converted amounts (≈) assume the structure as drawn.

Assays:
Type in all cases: functional
Rattus norvegicus = assay: Antiinflammatory activity in Wister albino rat assessed as inhibition of carrageenan-induced paw edema at 10 mg/kg, po administered 30 mins before carrageenan treatment measured after 3 hrs by plethysmometric analysis
Mus musculus [1] = assay: Analgesic activity in Swiss albino mouse assessed as inhibition of heat-induced paw licking or jumping behavior at 10 mg/kg, po administered after 15 sec of heat challenge measured after 30 mins post dose by Eddy's hot plate method; conditions: 0.5 h
Mus musculus [2] = assay: Analgesic activity in Swiss albino mouse assessed as inhibition of heat-induced paw licking or jumping behavior at 10 mg/kg, po administered after 15 sec of heat challenge measured after 60 mins post dose by Eddy's hot plate method; conditions: 1 h
Mus musculus [3] = assay: Analgesic activity in Swiss albino mouse assessed as inhibition of heat-induced paw licking or jumping behavior at 10 mg/kg, po administered after 15 sec of heat challenge measured after 90 mins post dose by Eddy's hot plate method; conditions: 1.5 h
Aspergillus flavus = assay: Antifungal activity against Aspergillus flavus NCIM 524 after 3 to 4 days by serial plate dilution method
Aspergillus fumigatus = assay: Antifungal activity against Aspergillus fumigatus NCIM 902 after 3 to 4 days by serial plate dilution method
Talaromyces marneffei = assay: Antifungal activity against Penicillium marneffei after 3 to 4 days by serial plate dilution method
[4] = tested on: Trichophyton mentagrophytes; assay: Antifungal activity against Trichophyton mentagrophytes after 3 to 4 days by serial plate dilution method
Pseudomonas aeruginosa = assay: Antibacterial activity against Pseudomonas aeruginosa ATCC 27853 after 3 to 4 days by serial plate dilution method
Klebsiella pneumoniae = assay: Antibacterial activity against Klebsiella pneumoniae after 3 to 4 days by serial plate dilution method
Escherichia coli = assay: Antibacterial activity against Escherichia coli ATCC 25922 after 3 to 4 days by serial plate dilution method
Staphylococcus aureus = assay: Antibacterial activity against Staphylococcus aureus ATCC 25923 after 3 to 4 days by serial plate dilution method

| MIC (Aspergillus flavus) [µg/mL] | MIC (Aspergillus fumigatus) [µg/mL] | MIC (Talaromyces marneffei) [µg/mL] | MIC [4] [µg/mL] | MIC (Pseudomonas aeruginosa) [µg/mL] | MIC (Klebsiella pneumoniae) [µg/mL] | MIC (Escherichia coli) [µg/mL] | MIC (Staphylococcus aureus) [µg/mL] | Compound | inhibition in vivo at 10 mg/kg (Rattus norvegicus) [%] | inhibition in vivo at 10 mg/kg (Mus musculus [1]) [%] | inhibition in vivo at 10 mg/kg (Mus musculus [2]) [%] | inhibition in vivo at 10 mg/kg (Mus musculus [3]) [%] |
| --- | --- | --- | --- | --- | --- | --- | --- | --- | --- | --- | --- | --- |
|  |  |  |  |  |  |  |  | O=C(O)Cc1ccccc1Nc1c(Cl)cccc1Cl [DICLOFENAC SODIUM] | 73.7 | 29.2 | 40.8 | 53.6 |
| 6.25 | 6.25 | 1.56 | 6.25 |  |  |  |  | Cc1cc(C2CCCCC2)n(O)c(=O)c1.NCCO [CICLOPIROX OLAMINE] |  |  |  |  |
| 12.5 (≈ 27.4 µM) | 12.5 (≈ 27.4 µM) | 12.5 (≈ 27.4 µM) | 12.5 (≈ 27.4 µM) | 12.5 (≈ 27.4 µM) | 12.5 (≈ 27.4 µM) | 12.5 (≈ 27.4 µM) | 12.5 (≈ 27.4 µM) | CCOc1ccccc1N1CCN(Cn2nc(Cc3ccc(SC)cc3)oc2=S)CC1 | 42.5 |  |  |  |
| 12.5 (≈ 30.7 µM) | 12.5 (≈ 30.7 µM) | 12.5 (≈ 30.7 µM) | 12.5 (≈ 30.7 µM) | 12.5 (≈ 30.7 µM) | 12.5 (≈ 30.7 µM) | 12.5 (≈ 30.7 µM) | 12.5 (≈ 30.7 µM) | CCOC(=O)C1CCN(Cn2nc(Cc3ccc(SC)cc3)oc2=S)CC1 | 57.4 |  |  |  |
| 6.25 (≈ 13.7 µM) | 6.25 (≈ 13.7 µM) | 6.25 (≈ 13.7 µM) | 6.25 (≈ 13.7 µM) | 6.25 (≈ 13.7 µM) | 6.25 (≈ 13.7 µM) | 6.25 (≈ 13.7 µM) | 6.25 (≈ 13.7 µM) | CC(C)Cc1ccc(C(C)c2nn(CN3CCN(c4ccc(F)cc4)CC3)c(=S)o2)cc1 (stereo not drawn) | 75.4 | 32.6 | 45 | 57 |
| 6.25 (≈ 13.3 µM) | 6.25 (≈ 13.3 µM) | 6.25 (≈ 13.3 µM) | 6.25 (≈ 13.3 µM) | 25 (≈ 53.1 µM) | 25 (≈ 53.1 µM) | 25 (≈ 53.1 µM) | 25 (≈ 53.1 µM) | CC(C)Cc1ccc(C(C)c2nn(CN3CCN(c4cccc(Cl)c4)CC3)c(=S)o2)cc1 (stereo not drawn) | 64.3 |  |  |  |
| 25 (≈ 51.9 µM) | 25 (≈ 51.9 µM) | 25 (≈ 51.9 µM) | 25 (≈ 51.9 µM) | 12.5 (≈ 26 µM) | 12.5 (≈ 26 µM) | 12.5 (≈ 26 µM) | 12.5 (≈ 26 µM) | CC(C)Cc1ccc(C(C)c2nn(CN3CCN(c4ccc([N+](=O)[O-])cc4)CC3)c(=S)o2)cc1 (stereo not drawn) | 75.1 | 30.6 | 36.2 | 44.8 |
| 6.25 (≈ 14 µM) | 6.25 (≈ 14 µM) | 6.25 (≈ 14 µM) | 6.25 (≈ 14 µM) | 6.25 (≈ 14 µM) | 6.25 (≈ 14 µM) | 6.25 (≈ 14 µM) | 6.25 (≈ 14 µM) | CSc1ccc(Cc2nn(CN3CCN(c4ccc(Cl)cc4)CC3)c(=S)o2)cc1 | 71.1 |  |  |  |
| 25 (≈ 69.5 µM) | 25 (≈ 69.5 µM) | 25 (≈ 69.5 µM) | 25 (≈ 69.5 µM) | 25 (≈ 69.5 µM) | 25 (≈ 69.5 µM) | 25 (≈ 69.5 µM) | 25 (≈ 69.5 µM) | CC(C)Cc1ccc(C(C)c2nn(CN3CCCCC3)c(=S)o2)cc1 (stereo not drawn) |  |  |  |  |
| 12.5 (≈ 34.7 µM) | 12.5 (≈ 34.7 µM) | 12.5 (≈ 34.7 µM) | 12.5 (≈ 34.7 µM) | 12.5 (≈ 34.7 µM) | 12.5 (≈ 34.7 µM) | 12.5 (≈ 34.7 µM) | 12.5 (≈ 34.7 µM) | CC(C)Cc1ccc(C(C)c2nn(CN3CCNCC3)c(=S)o2)cc1 (stereo not drawn) |  |  |  |  |
| 6.25 (≈ 14.5 µM) | 6.25 (≈ 14.5 µM) | 6.25 (≈ 14.5 µM) | 6.25 (≈ 14.5 µM) | 6.25 (≈ 14.5 µM) | 6.25 (≈ 14.5 µM) | 6.25 (≈ 14.5 µM) | 6.25 (≈ 14.5 µM) | CSc1ccc(Cc2nn(CN3CCN(c4ccc(F)cc4)CC3)c(=S)o2)cc1 | 68.7 |  |  |  |
| 12.5 (≈ 29 µM) | 12.5 (≈ 29 µM) | 12.5 (≈ 29 µM) | 12.5 (≈ 29 µM) | 12.5 (≈ 29 µM) | 12.5 (≈ 29 µM) | 12.5 (≈ 29 µM) | 12.5 (≈ 29 µM) | CCOC(=O)C1CCN(Cn2nc(C(C)c3ccc(CC(C)C)cc3)oc2=S)CC1 (stereo not drawn) | 73.9 | 30.6 | 41.8 | 55.2 |
| 25 (≈ 71.3 µM) | 25 (≈ 71.3 µM) | 25 (≈ 71.3 µM) | 25 (≈ 71.3 µM) | 12.5 (≈ 35.7 µM) | 12.5 (≈ 35.7 µM) | 12.5 (≈ 35.7 µM) | 12.5 (≈ 35.7 µM) | CSc1ccc(Cc2nn(CN3CCN(C)CC3)c(=S)o2)cc1 |  |  |  |  |
